In patent publication US20230278972A1, “SUBSTITUTED HALOALKYL SULFONANILIDE HERBICIDES” (FMC Corporation, priority 2020, published 2023):

Experiments:
Assay type in all cases: in vivo
[1] = tested on: Oat, Wild (wild oat, Avena fatua); assay: Test A1 preemergence, Oat, Wild
Procedure, shortened: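 Test compounds were formulated in a non-phytotoxic solvent mixture containing a surfactant. For preemergence, seeds sown in a loam soil–sand blend received a directed soil spray. For postemergence, potted plants in the same soil, 2 to 10 cm tall at the one- to two-leaf stage, were sprayed.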

[2] = tested on: blackgrass (Alopecurus myosuroides); assay: Test A1 postemergence, blackgrass; details: Postemergence, 0 to 100 scale (0 no effect, 100 complete control)
Procedure, shortened: (§1)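 Pre: seeds in loam/sand blend, directed soil spray. Post: potted plants, same soil, 2–10 cm, 1–2 leaf stage. Chemicals in non-phytotoxic solvent + surfactant for both.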

[3] = tested on: Foxtail, Giant (giant foxtail, Setaria faberi); assay: Test A1 postemergence, Foxtail, Giant; details: for Foxtail, Giant plant response rating: postemergence; for Plant response rating, Foxtail, Giant: Postemergence
Procedure, shortened: as §1

[4] = tested on: Ryegrass, Italian (Italian ryegrass, Lolium multiflorum); assay: Test A1 postemergence, Ryegrass, Italian; details: for Ryegrass, Italian plant response rating: postemergence; for Plant response rating, Ryegrass, Italian: Postemergence
Procedure, shortened: as §1

[5] = 31 g ai/ha, 0 to 100 scale (0 no effect, 100 complete control)
[6] = 125 g ai/ha, 0 to 100 scale, 0 no effect, 100 complete control
[7] = 31 g ai/ha, 0 to 100 scale (0 no effect, 100 complete control), 10 days

Row | Compound | Plant response rating, Oat, Wild [1, 5] | Plant response rating, Oat, Wild [1, 6] | Plant response rating, Blackgrass ([2]; 31 g ai/ha, 10 days) | Plant response rating, Blackgrass ([2]; 125 g ai/ha) | Foxtail, Giant plant response rating [3, 5] | Plant response rating, Foxtail, Giant ([3]; 125 g ai/ha, 0 to 100 scale) | Ryegrass, Italian plant response rating [4, 5] | Plant response rating, Ryegrass, Italian ([4]; 125 g ai/ha, 0 to 100 scale) | Plant response rating, Foxtail, Giant [3, 7] | Plant response rating, Ryegrass, Italian [4, 7]
1 | Cc1c(C(=O)N2C[C@@H](C)O[C@H](C)C2)cc(N(COC(=O)C(C)(C)C)S(=O)(=O)C(F)(F)F)c(C)c1C (relative stereo) [Compound 373] | 0 | 0 | 0 | 10 | 0 | 60 | 0 | 30 | – | –
2 | CCOC(=O)N(c1cc(C(=O)N2C[C@@H](C)O[C@H](C)C2)c(C)c(C)c1C)S(=O)(=O)C(F)(F)F (relative stereo) [Compound 374] | 0 | 30 | 0 | 10 | 0 | 80 | 0 | 50 | – | –
3 | Cc1c(NS(=O)(=O)C(F)(F)F)cc(C(=O)N2CCSCC2)c(C)c1C [Compound 283] | – | 0 | 0 | 10 | – | 90 | – | 40 | 80 | 0
4 | Cc1c(C(=O)N2CCSCC2)cc(N(COC(=O)C(C)(C)C)S(=O)(=O)C(F)(F)F)c(C)c1C [Compound 285] | 0 | 20 | 0 | 30 | – | 80 | – | 0 | 30 | 0
5 | CCOC(=O)N(c1cc(C(=O)N2CCSCC2)c(C)c(C)c1C)S(=O)(=O)C(F)(F)F [Compound 286] | 0 | 0 | 0 | 40 | – | 80 | – | 0 | 80 | 0
6 | Cc1c(NS(=O)(=O)C(F)(F)F)cc(C(=O)N2CCC(C)CC2)c(C)c1C [Compound 366] | 10 | 30 | 0 | 0 | 30 | 80 | 0 | 20 | – | –
7 | COC1CCN(C(=O)c2cc(NS(=O)(=O)C(F)(F)F)c(C)c(C)c2C)CC1 [Compound 367] | 20 | 30 | 0 | 0 | 10 | 90 | 0 | 0 | – | –
8 | Cc1c(C(=O)N2CCC(C)CC2)cc(N(COC(=O)C(C)(C)C)S(=O)(=O)C(F)(F)F)c(C)c1C [Compound 369] | 0 | 20 | 0 | 0 | 20 | 90 | 0 | 20 | – | –
9 | COC1CCN(C(=O)c2cc(N(COC(=O)C(C)(C)C)S(=O)(=O)C(F)(F)F)c(C)c(C)c2C)CC1 [Compound 370] | 0 | 0 | 0 | 0 | 10 | 80 | 0 | 0 | – | –
10 | C#CCN(C)C(=O)c1cc(N(COC(=O)C(C)(C)C)S(=O)(=O)C(F)(F)F)c(C)c(C)c1C [Compound 371] | 0 | 0 | 0 | 10 | 90 | 90 | 20 | 80 | – | –
